This passage reports K d and binding results from PMC6582339 (2019).

In assay [1] the test system is OBA3 (DNA, aptamer) CGGGGCGAAGCGGGTCCCG
Put plainly: fluorescence polarization (OTA intrinsic fluorescence). The note with it: 10 mM MgCl2; 10 mM Na2HPO4/KH2PO4; pH 7.4, room temperature, 500 nM OTA titrated with aptamer.

For assay [2] the test system is unchanged. Kind of assay: solution NMR structure. The note with it: 10 mM MgCl2; 10 mM Na2HPO4/KH2PO4; pH 7.4, 288-310 K.
Assay [3] deals with OBA5 (DNA, aptamer) CCGGGGCGAAGCGGGTCCCGG
Kind of assay: fluorescence polarization (OTA intrinsic fluorescence). The settings on record: 10 mM MgCl2; 10 mM Na2HPO4/KH2PO4; pH 7.4, room temperature, 500 nM OTA titrated with aptamer. (In general: Polarisation of emitted light reports the rotation of a fluorescent probe.)

Assay [4] relates to OBAwt-I1 (DNA, aptamer, inosine at 1) GGGGTGAAACGGGTCCCG
Put plainly: inosine substitution (Figure S1). The settings on record: 10 mM MgCl2; 10 mM Na2HPO4/KH2PO4; pH 7.4.

The subject of assay [5] is OBA4 (DNA, aptamer) GGGGTGAAACGGTCCCG
Kind of assay: not stated for this variant (Figure S2). The note with it: 10 mM MgCl2; 10 mM Na2HPO4/KH2PO4; printed NB (no binding); pH 7.4.

For assay [6], the system named is OBA2 (DNA, aptamer) GGGGCGAAGCGGGTCCCG
Kind of assay: fluorescence polarization (OTA intrinsic fluorescence). The note with it: 10 mM MgCl2; 10 mM Na2HPO4/KH2PO4; pH 7.4, room temperature, 500 nM OTA titrated with aptamer.

Assay [7] concerns OBAwt-I6 (DNA, aptamer, inosine at 6) GGGGTGAAACGGGTCCCG
Kind of assay: inosine substitution (Figure S1). The note with it: 10 mM MgCl2; 10 mM Na2HPO4/KH2PO4; pH 7.4.

Assay [8] relates to OBAwt-I12 (DNA, aptamer, inosine at 12) GGGGTGAAACGGGTCCCG
Kind of assay: inosine substitution (Figure S1). The note with it: 10 mM MgCl2; 10 mM Na2HPO4/KH2PO4; pH 7.4.

In assay [9] the test system is OBAwt-I3 (DNA, aptamer, inosine at 3) GGGGTGAAACGGGTCCCG
Put plainly: inosine substitution (Figure S1). The settings on record: 10 mM MgCl2; 10 mM Na2HPO4/KH2PO4; pH 7.4.

The subject of assay [10] is OBAwt-I13 (DNA, aptamer, inosine at 13) GGGGTGAAACGGGTCCCG
Put plainly: inosine substitution (Figure S1). The settings on record: 10 mM MgCl2; 10 mM Na2HPO4/KH2PO4; pH 7.4.

Assay [11] relates to OBA6 (DNA, aptamer) GCGGGGCGAAGCGGGTCCCGC
Put plainly: fluorescence polarization (OTA intrinsic fluorescence). The settings on record: 10 mM MgCl2; 10 mM Na2HPO4/KH2PO4; pH 7.4, room temperature, 500 nM OTA titrated with aptamer.

The test system of assay [12] is OBAwt-I11 (DNA, aptamer, inosine at 11) GGGGTGAAACGGGTCCCG
Kind of assay: inosine substitution (Figure S1). The note with it: 10 mM MgCl2; 10 mM Na2HPO4/KH2PO4; pH 7.4.

The subject of assay [13] is OBAwt-I2 (DNA, aptamer, inosine at 2) GGGGTGAAACGGGTCCCG
Put plainly: inosine substitution (Figure S1). The settings on record: 10 mM MgCl2; 10 mM Na2HPO4/KH2PO4; pH 7.4.

Assay [14] deals with OBA1 (DNA, aptamer) CGGGGTGAAACGGGTCCCG
Put plainly: fluorescence polarization (OTA intrinsic fluorescence). The settings on record: 10 mM MgCl2; 10 mM Na2HPO4/KH2PO4; pH 7.4, room temperature, 500 nM OTA titrated with aptamer.

The subject of assay [15] is OBAwt-I4 (DNA, aptamer, inosine at 4) GGGGTGAAACGGGTCCCG
Put plainly: inosine substitution (Figure S1). The note with it: 10 mM MgCl2; 10 mM Na2HPO4/KH2PO4; pH 7.4.

Assay [16] has as its system OBAwt (DNA, aptamer) GGGGTGAAACGGGTCCCG
Put plainly: fluorescence polarization (OTA intrinsic fluorescence). The note with it: 10 mM MgCl2; 10 mM Na2HPO4/KH2PO4; pH 7.4, room temperature, 500 nM OTA titrated with aptamer.

For assay [17] the test system is unchanged. Kind of assay: 1H NMR imino titration. The note with it: 10 mM Mg2+; 10 mM Na2HPO4/KH2PO4; pH 7.4, 288 K, 0.1 mM aptamer.
Assay [18] concerns OBA2 (DNA, aptamer) GGGGCGAAGCGGGTCCCG
Kind of assay: 1H NMR imino spectra. The settings on record: 10 mM MgCl2; 10 mM Na2HPO4/KH2PO4; pH 7.4, 2 equivalents of OTB.

Assay [19] deals with OBA1 (DNA, aptamer) CGGGGTGAAACGGGTCCCG
Put plainly: 1H NMR imino spectra. The note with it: 10 mM MgCl2; 10 mM Na2HPO4/KH2PO4; pH 7.4, 2 equivalents of OTB.

For assay [20], the system named is OBA3 (DNA, aptamer) CGGGGCGAAGCGGGTCCCG
Kind of assay: 1H NMR imino spectra. The note with it: 10 mM MgCl2; 10 mM Na2HPO4/KH2PO4; pH 7.4, 2 equivalents of OTB.

Turning to `C[C@@H]1Cc2c(Cl)cc(C(=O)N[C@@H](Cc3ccccc3)C(=O)O)c(O)c2C(=O)O1`, the K d in assay [1] was 1.4 ± 0.1 µM; in assay [3], 1.9 ± 0.1 µM; in assay [6], 26.2 ± 0.4 µM; in assay [11], 2.4 ± 0.1 µM; in assay [14], 5.9 ± 0.1 µM; in assay [16] it was 81 ± 2 µM. For the same compound, the binding result is “yes” in assay [2]; “no” in assay [4]; “no” in assay [5]; “no” in assay [7]; “yes” in assay [8]; “no” in assay [9]. In addition, the binding entry in assay [10], in assay [12], in [13] and in [15] was “no” in each case.
Consider `C[C@@H]1Cc2ccc(C(=O)N[C@@H](Cc3ccccc3)C(=O)O)c(O)c2C(=O)O1`, for which the binding result is on record as “no” in assay [17], “weak” in assay [18], “weak” in assay [19] and “weak” in assay [20].
